Experimental data taken from PMC9101373, “Design of DNA Intercalators Based on 4-Carboranyl-1,8-Naphthalimides: Investigation of Their DNA-Binding Ability and Anticancer Activity” (International Journal of Molecular Sciences, 2022).
Like-named read-outs stand apart in the source and are kept apart here.

What was measured:
human topoisomerase IIα = target: T1, human topoisomerase IIα (Homo sapiens, UniProt P11388); assay: Human topoisomerase IIα relaxation assay; type: biochemical; settings: supercoiled pBR322, concentration range 0.1–100 µM; read-out: IC50, compound concentration required to inhibit the activity of this enzyme by 50%
T1 construct: purchased Inspiralis (Norwich, UK)
Protocol: Therefore, we subjected these compounds to further detailed analyses of inhibitory potential within the concentration range of 0.1–100 µM (Figure S301, ESI) to calculate IC50 values. IC50 refers to the compound concentration (µM) required to inhibit the activity of the topoisomerase enzyme by 50%.
The Human Topoisomerase II-alpha Relaxation Assay Kit was purchased from Inspiralis (Norwich, UK). The Topo IIα inhibition assay was performed as described by the manufacturer. […] Next, TopoIIα (1 U) was added, and the reaction mixture was incubated at 37 °C for an additional 45 min. The reaction was terminated by addition of the STEB buffer (40 % (w/v) sucrose, Tris-HCl (100 mM, pH 8), EDTA (1 mM), bromophenol blue (0.5 mg/mL)). The products were analyzed by electrophoresis using agarose gel (1%) in TAE buffer at 70 V for 2 h, followed by ethidium bromide staining. […] The percentage of Topo-II alpha activity inhibition was calculated by densitometric quantification (Quantity One software, Bio-Rad). The occurrence of a band representing supercoiled DNA on an agarose gel indicated the inhibition of enzyme activity.

calf thymus DNA (ct-DNA) [1] = system: calf thymus DNA (ct-DNA); parameters: method as in PMID 33803403; settings: unmodified mitonafide and pinafide; cited from earlier work
HepG2 cells [2] = system: HepG2 cells; parameters: method as in PMID 31776032; settings: read-out: IC50, compound concentration required to inhibit cell growth by 50%; cited from earlier work
HepG2 cells [3] = system: HepG2 cells; parameters: method as in PMID 31776032; settings: cited from earlier work
calf thymus DNA (ct-DNA) [4] = assay: Melting temperature (Tm) measurements of ct-DNA, thermal denaturation; type: binding; settings: r = [compound]/[ct-DNA] = 0.3; pH 7.0, 20 mM cacodylate buffer; Tm of ct-DNA alone 74 °C
Protocol: The melting temperature (Tm) of DNA is defined as the temperature at which 50% of the DNA is in form of single strands forming randomly coiled structures. DNA melting is measured by the absorbance of UV light (260 nm) by the DNA solution, where the amount of UV light absorbed is proportional to the fraction of non-bonded base pairs. The majority of DNA-binding small molecules known thus far stabilize duplex DNA against heat denaturation. A high, drug-induced increase in the Tm of DNA is generally viewed as an excellent criterion to select DNA ligands and is a common feature of several anticancer drugs such as intercalators (a significant increase in Tm = 3–8 °C is observed for strong intercalation) and alkylators. The reverse situation (destabilization of DNA to facilitate its denaturation) may be an attractive option to identify therapeutic agents acting on the DNA structure.
Our study conducted Tm measurement to estimate the impact of 1,8-naphthalimides bearing the carborane cluster on DNA stabilization (Table 1, Figures S249–S253, ESI).
The measurements were performed by adding aliquots of DMSO stock solution of the tested compounds to the buffer solution (pH 7.0, 20 mM, cacodylate buffer, DMSO content of the final solution = 0.24–0.36%). The Tm curves were collected at r = 0.3 (r = [compound]/[ct-DNA]) to assure the dominant binding mode. Thermal melting curves were determined by following the absorption change at 260 nm as a function of temperature by using a GBC Cintra10 UV–vis spectrometer (Dandenong, Australia) equipped with a GBC Thermocell Peltier Power Supply (Dandenong, Australia) using a 1 cm path length cell. The absorbance of the samples was monitored at 260 nm from 30 to 90 °C (95 °C for compounds 54–61) with a heating rate of 1 °C/min. Tm values are the midpoints or the transition curves determined from the maximum of the first derivative. The ΔTm values were calculated by subtracting the Tm of the free nucleic acid from the Tm of the sample. Every Tm value reported in this study was average at least three measurements. The error in Tm was 0.5 °C.

calf thymus DNA (ct-DNA) [5] = assay: UV–vis absorption titration with ct-DNA, binding constant Kb; settings: 10 µM compound, ct-DNA 1.25–15 µM
Text: The interaction of 1,8-naphthalimides bearing carborane clusters with ct-DNA was also studied by UV–vis absorption titration to better understand the mode of interaction and binding strength. For compounds interacting with DNA by intercalation, bathochromic and hypochromic effects are observed in the absorption spectra. The spectral changes observed in the electronic absorption of 6–11, 16–19, 36–43, and 54–61 in the absence and presence of ct-DNA are illustrated in Figures S271–S296 (ESI). Progressive addition of ct-DNA at the concentration of 1.25–15 µM to a fixed amount of modified naphthalic anhydride or naphthalimide (10 µM concentration) decreased absorbance for almost all the tested modified conjugates, except conjugates 14, 15, and 22–27 for which changes in absorbance were not observed. […] Hypochromicity (10–56%) was also observed for all conjugates, with the highest value for compound 40.
To compare the DNA-binding strength of the tested conjugates, we calculated the binding constant Kb, as described in the Materials and Methods section. […] For conjugates 14, 15, and 22–27, the Kb value could not be determined due to the lack of noticeable changes in the UV spectra.
The measurements were performed by adding aliquots of DMSO stock solution of the tested compounds to the buffer solution (pH 7.4, 20 mM, 50 mM NaCl, Tris-HCl buffer, DMSO content of the final solutions = 0.40–0.61%) to the final concentration of 10 µM. The tested compounds were incubated 5 min, with increasing concentrations ranging from 0 to 15 µM of ct-DNA at 37 °C, then the UV–vis absorption spectra, between 310 and 500 nm (310–550 nm for compounds 36–43 and 54–61), were recorded using a GBC Cintra10 UV–vis spectrometer (Dandenong, Australia) equipped with a GBC Thermocell Peltier Power Supply (Dandenong, Australia) using a 1 cm path length cell. The binding constant was calculated according to the following equation [53]: A0/A−A0=εG/εH−G−εG +εG/εH−G−εG ×1/Kb[DNA] where Kb is the binding constant, A0 and A are the absorbance of the free tested compound, and the apparent one, εG and εH−G are their coefficient, respectively, and [DNA] is the concentration of [DNA] in the base pair. The slope to intercept ratio of the plot between A0/A − A0 versus 1/[DNA] yielded the binding constant.

HepG2 cells [6] = assay: In vitro cytotoxic activity, MTT assay; type: cell-based, human; settings: 24 h treatment, read-out: IC50, compound concentration required to inhibit cell growth by 50%
Protocol: The obtained 1,8-naphthalimide–carborane conjugates were investigated for their in vitro antitumor activity by examining their cytotoxic effects using the MTT tetrazolium dye assay against the human cancer cell line HepG2 established from hepatocellular carcinoma. IC50 refers to the drug concentration (µM) required to inhibit cell growth by 50%.
The cytotoxic properties of the synthesized compounds were evaluated using the human hepatocellular carcinoma cell line HepG2 established from hepatocellular carcinoma. The HepG2 cell line was purchased from ECACC (Salisbury, UK). Cells were grown in EMEM medium (Corning®) supplemented with 10% heat-inactivated fetal bovine serum (FBS) (Corning®) and antibiotics (Corning®), at 37 °C in a 5% CO2 atmosphere. Upon reaching 80–90% confluency, cells were detached with the trypsin (Corning®) and transferred into 96-well microplates at a density of 12 × 10^3. After overnight incubation at 37 °C in a humidified atmosphere containing 5% CO2, the cells were treated for the next 24 h with compounds. The stock solution of each compound was prepared in DMSO at 10 mM. The cytotoxicity was evaluated by the MTT assay. […] Subsequently, the medium was aspirated and replaced with 3-(4,5-dimethylthiazol-2-yl)-2,5-diphenyltetrazolium bromide (MTT) dye solution (50 µL, 0.5 mg/mL). After 3 h incubation, the resulting MTT formazan crystals were dissolved in DMSO (100 µL). To ensure the complete dissolution of formazan, the plates were shaken on an orbital microplate shaker at 1000 rpm for 15 min (Thermoshaker NeoLab 7–0055, Bionovo, Legnica, Poland). The optical density of each well was then measured on a VICTOR Nivo multimode plate reader at a wavelength of 570 nm. Each experiment consisted of 6 replications of each concentration, and each experiment was repeated three times independently. The results were calculated as a percentage of control group viability. The IC50 values were determined using a non-linear regression from the plot of % viability against log dose of compounds by using GraphPad Prism 6.0 software (GraphPad, San Diego, CA, USA).

T1 sequence (P11388 whole entry): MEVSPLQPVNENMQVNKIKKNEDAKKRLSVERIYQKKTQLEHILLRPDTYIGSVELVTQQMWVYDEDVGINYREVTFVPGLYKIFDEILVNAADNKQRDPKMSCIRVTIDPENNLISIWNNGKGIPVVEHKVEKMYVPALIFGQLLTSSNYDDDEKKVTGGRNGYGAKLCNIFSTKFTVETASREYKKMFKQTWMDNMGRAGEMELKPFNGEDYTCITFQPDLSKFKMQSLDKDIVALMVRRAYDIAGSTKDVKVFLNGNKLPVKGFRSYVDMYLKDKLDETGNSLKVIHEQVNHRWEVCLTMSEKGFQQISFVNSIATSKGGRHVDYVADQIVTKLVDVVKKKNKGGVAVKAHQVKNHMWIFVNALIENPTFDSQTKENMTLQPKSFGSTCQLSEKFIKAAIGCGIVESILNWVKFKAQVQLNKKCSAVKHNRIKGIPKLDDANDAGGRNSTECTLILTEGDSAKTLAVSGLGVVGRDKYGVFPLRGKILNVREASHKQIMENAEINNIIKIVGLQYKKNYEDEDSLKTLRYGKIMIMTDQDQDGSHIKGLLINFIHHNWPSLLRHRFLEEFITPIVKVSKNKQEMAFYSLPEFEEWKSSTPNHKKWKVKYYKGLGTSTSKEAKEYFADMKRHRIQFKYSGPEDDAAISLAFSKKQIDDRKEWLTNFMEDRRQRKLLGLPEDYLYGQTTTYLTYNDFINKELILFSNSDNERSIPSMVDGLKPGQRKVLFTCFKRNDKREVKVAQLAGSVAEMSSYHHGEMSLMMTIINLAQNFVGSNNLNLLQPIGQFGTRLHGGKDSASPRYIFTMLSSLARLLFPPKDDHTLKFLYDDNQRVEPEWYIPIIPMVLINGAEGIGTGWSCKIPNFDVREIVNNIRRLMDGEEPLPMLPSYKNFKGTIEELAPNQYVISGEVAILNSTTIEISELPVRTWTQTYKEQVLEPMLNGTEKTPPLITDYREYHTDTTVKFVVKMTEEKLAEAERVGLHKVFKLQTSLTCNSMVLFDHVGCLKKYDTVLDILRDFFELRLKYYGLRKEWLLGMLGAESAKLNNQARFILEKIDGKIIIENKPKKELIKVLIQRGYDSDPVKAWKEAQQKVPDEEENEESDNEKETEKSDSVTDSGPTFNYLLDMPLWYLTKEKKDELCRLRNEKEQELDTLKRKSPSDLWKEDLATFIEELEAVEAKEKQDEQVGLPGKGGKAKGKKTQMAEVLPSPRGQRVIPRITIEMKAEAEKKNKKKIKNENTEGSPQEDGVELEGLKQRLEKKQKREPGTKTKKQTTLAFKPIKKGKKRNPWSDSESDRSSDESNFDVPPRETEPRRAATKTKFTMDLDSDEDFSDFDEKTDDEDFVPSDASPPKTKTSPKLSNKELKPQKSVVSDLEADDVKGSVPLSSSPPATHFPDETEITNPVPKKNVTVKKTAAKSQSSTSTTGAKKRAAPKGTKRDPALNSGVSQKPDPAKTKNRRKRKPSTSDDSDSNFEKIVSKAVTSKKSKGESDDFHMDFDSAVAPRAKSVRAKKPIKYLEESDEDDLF

Compound | IC50 (human topoisomerase IIα) | ΔTm ct-DNA (calf thymus DNA (ct-DNA) [1]) | IC50 (HepG2 cells [2]) | 8-oxo-dG level in cellular DNA (HepG2 cells [3]) | ΔTm ct-DNA (calf thymus DNA (ct-DNA) [4]) | bathochromic shift (calf thymus DNA (ct-DNA) [5]) | IC50 (HepG2 cells [6])
CN(C)CCN1C(=O)c2cccc3cc([N+](=O)[O-])cc(c23)C1=O [Mitonafide, mitonafide] | 5.13 µM | 5.17 °C | < 1 µM | Mitonafide—28.24 ± 0.18 per 10^6 dG [8]. | – | – | –
O=C1c2cccc3cc([N+](=O)[O-])cc(c23)C(=O)N1CCN1CCCC1 [Pinafide, pinafide] | – | 6.50 °C | 1.23 µM | – | – | – | –
N-[2-(N-Pyrrolidinyl)ethyl]-4-{1-[3-(1,2-dicarba-closo-dodecaborane-1-yl)propyl]-1H-1,2,3-triazol-4-yl}methoxy-1,8-naphthalimide [Compound 17] | – | – | – | – | 0.67 °C | 1–2 nm | 36.9 ± 3.72 µM
N-[2-(N-Pyrrolidinyl)ethyl]-4-{1-[3-(1,7-dicarba-closo-dodecaborane-1-yl)propyl]-1H-1,2,3-triazol-4-yl}-1,8-naphthalimide [Compound 11] | – | – | – | – | 0.33 °C | 1–2 nm | 14.6 ± 0.43 µM
N-[2-(N-Pyrrolidinyl)ethyl]-4-{1-[3-(1,7-dicarba-closo-dodecaborane-1-yl)propyl]-1H-1,2,3-triazol-4-yl}methoxy-1,8-naphthalimide [Compound 19] | – | – | – | – | 0.67 °C | 1–2 nm | 15 ± 0.57 µM
